From patent US8680159B2, “Bradykinin 1 receptor modulating compounds” (Gruenenthal GmbH, priority 2010, dated 2014) come the findings set out here.

The target in this assay is T1, B1R receptor of the rat (CHO K1 cells stably transfected with the B1R gene of the rat) (Rattus norvegicus, UniProt P97583).
T1 construct: expressed in transfected cells; host or cells: CHO K1 cells (Chinese hamster ovary), stably transfected
T1 sequence (P97583 1-337): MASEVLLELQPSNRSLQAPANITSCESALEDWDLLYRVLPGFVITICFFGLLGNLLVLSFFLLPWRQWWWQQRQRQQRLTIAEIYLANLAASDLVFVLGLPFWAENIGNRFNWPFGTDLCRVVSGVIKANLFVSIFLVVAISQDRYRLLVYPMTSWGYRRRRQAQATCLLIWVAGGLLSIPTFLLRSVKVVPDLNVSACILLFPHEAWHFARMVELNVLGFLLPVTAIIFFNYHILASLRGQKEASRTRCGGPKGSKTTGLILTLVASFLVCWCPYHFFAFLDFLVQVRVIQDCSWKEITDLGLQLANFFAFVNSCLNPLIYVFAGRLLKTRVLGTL
Put plainly: Functional study on the bradykinin receptor 1 (B1R), Ca2+ fluorescence (Fluo-4) FLIPR/Novostar assay, rB1R cells. Format: cell-based. Conditions: CHO-K1, 10 μM, read-out: % Inhibition (r-B1R) at 10 μM. An outline of the steps:
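Stably transfected CHO K1 cells carrying human or rat B1R were Fluo-4 loaded and Ca2+ fluorescence read by FLIPR or Novostar. Compounds were added first at 10 μM for % activation, then the EC80 agonist was applied after 6-20 min (human: Lys-Des-Arg9-bradykinin; rat: Des-Arg9-bradykinin). % inhibition is relative to maximum achievable inhibition, and IC50 comes from concentration series.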
In the case of `CN(C(=O)c1ccc2c(c1)C(NC(=O)Nc1ccc(F)c(Cl)c1)CCC2)C1CCN(c2ccncc2)CC1` (centres unmarked) [CC_H-265, 8-[[(3-Chloro-4-fluoro-phenyl)-carbamoyl]amino]-N-methyl-N-(1-pyridin-4-yl-piperidin-4-yl)-5,6,7,8-tetrahydro-naphthalene-2-carboxylic acid amide], the inhibition at 10 µM was 105%.
Turning to `Cc1ccc(NC(=O)NC2CCCc3ccc(C(=O)N(C)C4CCN(c5ccncc5)CC4)cc32)c(C)c1` (centres unmarked) [CC_H-266, 8-[[(2,4-Dimethyl-phenyl)-carbamoyl]amino]-N-methyl-N-(1-pyridin-4-yl-piperidin-4-yl)-5,6,7,8-tetrahydro-naphthalene-2-carboxylic acid amide], the inhibition at 10 µM amounted to 63%.
`CN(C(=O)NC1CCCc2ccc(C(=O)N(C)C3CCN(c4ccncc4)CC3)cc21)c1ccccc1Cl` (centres unmarked) [CC_H-268, 8-[[(2-Chlorophenyl)-methyl-carbamoyl]amino]-N-methyl-N-(1-pyridin-4-yl-piperidin-4-yl)-5,6,7,8-tetrahydro-naphthalene-2-carboxylic acid amide]: the inhibition at 10 µM was 110%.
`CN(C(=O)NC1CCCc2ccc(C(=O)N(C)C3CCN(c4ccncc4)CC3)cc21)c1ccc(Cl)cc1Cl` (centres unmarked) [CC_H-269, 8-[[(2,4-Dichlorophenyl)-methyl-carbamoyl]amino]-N-methyl-N-(1-pyridin-4-yl-piperidin-4-yl)-5,6,7,8-tetrahydro-naphthalene-2-carboxylic acid amide]: the inhibition at 10 µM came out at 109%.
Take `CN(C(=O)c1ccc2c(c1)C(NS(=O)(=O)C1CCCCC1)CCC2)C1CCN(c2ccncc2)CC1` (centres unmarked) [CC_H-270, 8-[(Cyclohexylsulfonyl)amino]-N-methyl-N-(1-pyridin-4-yl-piperidin-4-yl)-5,6,7,8-tetrahydro-naphthalene-2-carboxylic acid amide]: the inhibition at 10 µM came out at 110%.
For `CC(C)CC(=O)NC1CCCc2ccc(C(=O)N(C)C3CCN(c4ccncc4)CC3)cc21` (centres unmarked) [CC_H-271, N-Methyl-8-(3-methyl-butanoylamino)-N-(1-pyridin-4-yl-piperidin-4-yl)-5,6,7,8-tetrahydro-naphthalene-2-carboxylic acid amide], the inhibition at 10 µM was 109%.
The figure for `CN(C(=O)c1ccc2c(c1)C(NC(=O)c1cc(C(F)(F)F)ccc1Cl)CCO2)C1CCN(c2ccncc2)CC1` (centres unmarked) [CC_H-272, 4-[[2-Chloro-5-(trifluoromethyl)-benzoyl]amino]-N-methyl-N-(1-pyridin-4-yl-piperidin-4-yl)-3,4-dihydro-2H-chromene-6-carboxylic acid amide] is 112%; for `Cc1ccc(F)c(C(=O)NC2CCOc3ccc(C(=O)N(C)C4CCN(c5ccncc5)CC4)cc32)c1Cl` (centres unmarked) [CC_H-273, 4-[(2-Chloro-6-fluoro-3-methyl-benzoyl)amino]-N-methyl-N-(1-pyridin-4-yl-piperidin-4-yl)-3,4-dihydro-2H-chromene-6-carboxylic acid amide] it is 112%.
As to `CN(C(=O)c1ccc2c(c1)C(NC(=O)C1CC1)CCO2)C1CCN(c2ccncc2)CC1` (centres unmarked) [CC_H-274, 4-(Cyclopropanecarbonylamino)-N-methyl-N-(1-pyridin-4-yl-piperidin-4-yl)-3,4-dihydro-2H-chromene-6-carboxylic acid amide], the inhibition at 10 µM was 91%.
Regarding `CN(C(=O)c1ccc2c(c1)C(NC(=O)CC(C)(C)C)CCO2)C1CCN(c2ccncc2)CC1` (centres unmarked) [CC_H-275, 4-(3,3-Dimethyl-butanoylamino)-N-methyl-N-(1-pyridin-4-yl-piperidin-4-yl)-3,4-dihydro-2H-chromene-6-carboxylic acid amide], the inhibition at 10 µM was found to be 111%.
For the compound `COCC(=O)NC1CCOc2ccc(C(=O)N(C)C3CCN(c4ccncc4)CC3)cc21` (centres unmarked) [CC_H-276, 4-[(2-Methoxy-acetyl]amino]-N-methyl-N-(1-pyridin-4-yl-piperidin-4-yl)-3,4-dihydro-2H-chromene-6-carboxylic acid amide], the inhibition at 10 µM worked out at 51%.
Turning to `CC(=O)NC1CCOc2ccc(C(=O)N(C)C3CCN(c4ccncc4)CC3)cc21` (centres unmarked) [CC_H-277, 4-Acetylamino-N-methyl-N-(1-pyridin-4-yl-piperidin-4-yl)-3,4-dihydro-2H-chromene-6-carboxylic acid amide], the inhibition at 10 µM came out at 100%.
In the case of `Cc1cccc(Cl)c1S(=O)(=O)NC1CCOc2ccc(C(=O)N(C)C3CCN(c4ccncc4)CC3)cc21` (centres unmarked) [CC_H-278, 4-[[(2-Chloro-6-methyl-phenyl)sulfonyl]amino]-N-methyl-N-(1-pyridin-4-yl-piperidin-4-yl)-3,4-dihydro-2H-chromene-6-carboxylic acid amide], the inhibition at 10 µM came out at 103%.
The figure for `CN(C(=O)c1ccc2c(c1)C(NC(=O)c1cccc(C(F)(F)F)c1Cl)CCO2)C1CCN(c2ccncc2)CC1` (centres unmarked) [CC_H-279, 4-[[2-Chloro-3-(trifluoromethyl)-benzoyl]amino]-N-methyl-N-(1-pyridin-4-yl-piperidin-4-yl)-3,4-dihydro-2H-chromene-6-carboxylic acid amide] is 111%.
Turning to `CN(C(=O)c1ccc2c(c1)C(NC(=O)Nc1ccccc1Cl)CCO2)C1CCN(c2ccncc2)CC1` (centres unmarked) [CC_H-280, 4-[[(2-Chlorophenyl)-carbamoyl]amino]-N-methyl-N-(1-pyridin-4-yl-piperidin-4-yl)-3,4-dihydro-2H-chromene-6-carboxylic acid amide], the inhibition at 10 µM was found to be 91%.
For the compound `CN(C(=O)c1ccc2c(c1)C(NC(=O)Nc1cccc(Cl)c1)CCO2)C1CCN(c2ccncc2)CC1` (centres unmarked) [CC_H-281, 4-[[(3-Chlorophenyl)-carbamoyl]amino]-N-methyl-N-(1-pyridin-4-yl-piperidin-4-yl)-3,4-dihydro-2H-chromene-6-carboxylic acid amide], the inhibition at 10 µM turned out to be 99%.
`CN(C(=O)c1ccc2c(c1)C(NC(=O)Nc1cccc(Cl)c1Cl)CCO2)C1CCN(c2ccncc2)CC1` (centres unmarked) [CC_H-282, 4-[[(2,3-Dichloro-phenyl)-carbamoyl]amino]-N-methyl-N-(1-pyridin-4-yl-piperidin-4-yl)-3,4-dihydro-2H-chromene-6-carboxylic acid amide]: the inhibition at 10 µM came out at 102%.
On to `CN(C(=O)c1ccc2c(c1)C(NC(=O)Nc1cc(Cl)ccc1Cl)CCO2)C1CCN(c2ccncc2)CC1` (centres unmarked) [CC_H-283, 4-[[(2,5-Dichloro-phenyl)-carbamoyl]amino]-N-methyl-N-(1-pyridin-4-yl-piperidin-4-yl)-3,4-dihydro-2H-chromene-6-carboxylic acid amide], for which the inhibition at 10 µM came out at 106%.
The figure for `CN(C(=O)c1ccc2c(c1)C(NC(=O)Nc1cc(C(F)(F)F)ccc1Cl)CCO2)C1CCN(c2ccncc2)CC1` (centres unmarked) [CC_H-285, 4-[[[2-Chloro-5-(trifluoromethyl)-phenyl]-carbamoyl]amino]-N-methyl-N-(1-pyridin-4-yl-piperidin-4-yl)-3,4-dihydro-2H-chromene-6-carboxylic acid amide] is 75%.
Take `CN(C(=O)c1ccc2c(c1)C(NC(=O)Nc1ccc(Cl)cc1Cl)CCO2)C1CCN(c2ccncc2)CC1` (centres unmarked) [CC_H-286, 4-[[(2,4-Dichlorophenyl)-carbamoyl]amino]-N-methyl-N-(1-pyridin-4-yl-piperidin-4-yl)-3,4-dihydro-2H-chromene-6-carboxylic acid amide]: the inhibition at 10 µM is 87%.
As for `Cc1ccc(NC(=O)NC2CCOc3ccc(C(=O)N(C)C4CCN(c5ccncc5)CC4)cc32)cc1Cl` (centres unmarked) [CC_H-288, 4-[[(3-Chloro-4-methyl-phenyl)-carbamoyl]amino]-N-methyl-N-(1-pyridin-4-yl-piperidin-4-yl)-3,4-dihydro-2H-chromene-6-carboxylic acid amide], the inhibition at 10 µM came out at 69%.
`CN(C(=O)c1ccc2c(c1)C(NC(=O)Nc1ccc(F)c(Cl)c1)CCO2)C1CCN(c2ccncc2)CC1` (centres unmarked) [CC_H-289, 4-[[(3-Chloro-4-fluoro-phenyl)-carbamoyl]amino]-N-methyl-N-(1-pyridin-4-yl-piperidin-4-yl)-3,4-dihydro-2H-chromene-6-carboxylic acid amide]: the inhibition at 10 µM came out at 77%.
Turning to `CN(C(=O)NC1CCOc2ccc(C(=O)N(C)C3CCN(c4ccncc4)CC3)cc21)c1ccccc1Cl` (centres unmarked) [CC_H-292, 4-[[(2-Chlorophenyl)-methyl-carbamoyl]amino]-N-methyl-N-(1-pyridin-4-yl-piperidin-4-yl)-3,4-dihydro-2H-chromene-6-carboxylic acid amide], the inhibition at 10 µM worked out at 102%.
The figure for `CC(C)CC(=O)NC1CCOc2ccc(C(=O)N(C)C3CCN(c4ccncc4)CC3)cc21` (centres unmarked) [CC_H-293, N-Methyl-4-(3-methyl-butanoylamino)-N-(1-pyridin-4-yl-piperidin-4-yl)-3,4-dihydro-2H-chromene-6-carboxylic acid amide] is 109%; for `Cc1cc(N2CCC(N(C)C(=O)c3ccc4c(c3)C(NC(=O)c3cc(F)ccc3Cl)CC4)CC2)cc(C)n1` (centres unmarked) [CC_H-294, 3-[(2-Chloro-5-fluoro-benzoyl)amino]-N-[1-(2,6-dimethyl-pyridin-4-yl)-piperidin-4-yl]-N-methyl-2,3-dihydro-1H-indene-5-carboxylic acid amide] it is 111%; for `Cc1cc(N2CCC(N(C)C(=O)c3ccc4c(c3)C(NC(=O)c3c(F)ccc(C)c3Cl)CC4)CC2)cc(C)n1` (centres unmarked) [CC_H-295, 3-[(2-Chloro-6-fluoro-3-methyl-benzoyl)amino]-N-[1-(2,6-dimethyl-pyridin-4-yl)-piperidin-4-yl]-N-methyl-2,3-dihydro-1H-indene-5-carboxylic acid amide] it is 111%.

What is called inhibition is the relative decrease from the control value, in per cent.
